The target of one test is T1, recombinant human MER (Homo sapiens, UniProt Q12866).
T1 construct: purchased Invitrogen
T1 sequence (Q12866 21-999): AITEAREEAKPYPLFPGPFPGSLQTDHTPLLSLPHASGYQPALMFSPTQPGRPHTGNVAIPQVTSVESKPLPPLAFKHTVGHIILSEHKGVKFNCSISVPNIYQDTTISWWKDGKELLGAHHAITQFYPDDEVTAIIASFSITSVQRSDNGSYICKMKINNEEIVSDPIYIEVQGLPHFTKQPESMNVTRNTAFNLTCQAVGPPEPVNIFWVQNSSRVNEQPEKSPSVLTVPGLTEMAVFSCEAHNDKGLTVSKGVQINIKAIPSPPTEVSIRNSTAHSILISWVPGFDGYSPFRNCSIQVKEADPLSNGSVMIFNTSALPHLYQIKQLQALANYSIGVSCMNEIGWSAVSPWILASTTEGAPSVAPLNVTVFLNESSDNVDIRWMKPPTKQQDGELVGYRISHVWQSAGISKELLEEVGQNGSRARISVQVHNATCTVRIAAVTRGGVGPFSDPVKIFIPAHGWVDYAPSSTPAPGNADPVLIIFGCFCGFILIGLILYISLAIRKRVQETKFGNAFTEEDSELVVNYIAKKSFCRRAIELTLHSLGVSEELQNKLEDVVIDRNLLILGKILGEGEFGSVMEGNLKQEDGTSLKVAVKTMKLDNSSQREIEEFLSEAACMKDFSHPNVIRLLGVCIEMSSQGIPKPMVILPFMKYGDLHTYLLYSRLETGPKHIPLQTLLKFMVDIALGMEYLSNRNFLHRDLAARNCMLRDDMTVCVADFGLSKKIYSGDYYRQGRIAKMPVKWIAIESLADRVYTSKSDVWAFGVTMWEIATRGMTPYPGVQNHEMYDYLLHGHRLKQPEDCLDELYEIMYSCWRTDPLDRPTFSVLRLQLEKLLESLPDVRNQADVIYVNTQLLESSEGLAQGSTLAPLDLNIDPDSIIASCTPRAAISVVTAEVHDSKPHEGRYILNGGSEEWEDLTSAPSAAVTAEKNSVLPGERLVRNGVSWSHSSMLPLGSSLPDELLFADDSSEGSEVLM
Description: HTRF KinEASE-TK biochemical potency, MER. The settings on record: 1 nM MER, 700 μM ATP. Summed up:
(§1)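 Enzyme preincubated with compound 1 h at RT; final 5 nM AXL or 1 nM TYRO3/MER, 800 nM TK substrate-biotin, 700 μM ATP, HEPES pH 7.4, MgCl2, 1% DMSO, 2 h at RT. HTRF 665/620 ratio read after streptavidin-XL665/cryptate antibody detection; percent activity relative to DMSO and pre-stopped controls.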
A general note: TR-FRET usually uses a lanthanide donor and a delayed reading to cut background.

A further test has as its target T2, recombinant human TYRO3 (Homo sapiens, UniProt Q06418).
T2 construct: purchased Invitrogen
T2 sequence (Q06418 41-890): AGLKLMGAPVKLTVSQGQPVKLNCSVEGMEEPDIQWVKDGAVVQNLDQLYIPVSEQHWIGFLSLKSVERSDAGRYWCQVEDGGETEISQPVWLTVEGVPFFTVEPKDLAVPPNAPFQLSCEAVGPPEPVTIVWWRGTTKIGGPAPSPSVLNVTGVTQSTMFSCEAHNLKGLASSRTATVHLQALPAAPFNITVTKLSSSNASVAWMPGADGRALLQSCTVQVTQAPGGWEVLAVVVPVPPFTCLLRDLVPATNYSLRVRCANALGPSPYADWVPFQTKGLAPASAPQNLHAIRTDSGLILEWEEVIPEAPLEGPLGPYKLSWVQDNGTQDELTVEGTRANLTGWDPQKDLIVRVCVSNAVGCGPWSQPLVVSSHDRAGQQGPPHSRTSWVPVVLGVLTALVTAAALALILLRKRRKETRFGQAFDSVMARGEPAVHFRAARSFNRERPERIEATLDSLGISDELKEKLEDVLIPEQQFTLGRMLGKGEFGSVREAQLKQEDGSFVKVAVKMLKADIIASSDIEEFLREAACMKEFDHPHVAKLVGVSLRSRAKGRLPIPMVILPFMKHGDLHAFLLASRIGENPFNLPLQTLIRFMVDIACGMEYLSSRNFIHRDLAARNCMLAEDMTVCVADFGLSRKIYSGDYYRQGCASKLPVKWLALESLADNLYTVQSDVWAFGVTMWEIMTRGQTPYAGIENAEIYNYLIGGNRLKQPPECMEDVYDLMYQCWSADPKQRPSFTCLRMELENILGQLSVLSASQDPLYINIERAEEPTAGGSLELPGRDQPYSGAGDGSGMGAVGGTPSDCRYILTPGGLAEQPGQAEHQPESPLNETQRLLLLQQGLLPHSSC
Description: HTRF KinEASE-TK biochemical potency, TYRO3. To be noted: 1 nM TYRO3, 700 μM ATP. The gist of the method: as §1

`C[C@@H]1CCCN1C1CCc2ccc(-c3cnc4[nH]nc(-c5cc6c(cc5F)C(=O)NCCO6)c4c3)cc2CC1` (stereo partly drawn) [Example 61, 7-Fluoro-8-(5-{7-[(2R)-2-methylpyrrolidin-1-yl]-6,7,8,9-tetrahydro-5H-benzo[7]annulen-2-yl}-1H-pyrazolo[3,4-b]pyridin-3-yl)-2,3,4,5-tetrahydro-1,4-benzoxazepin-5-one]: the IC50 on recombinant human MER was 100 to 1000 nM; at recombinant human TYRO3, below 100 nM.
The matching figures for `C[C@@H]1CCCN1C1CCc2ccc(-c3cnc4[nH]nc(-c5ccc6c(c5)O[C@@H](C)CNC6=O)c4c3)cc2CC1` (stereo partly drawn) [Example 62, (2S)-2-Methyl-8-(5-{7-[(2R)-2-methylpyrrolidin-1-yl]-6,7,8,9-tetrahydro-5H-benzo[7]annulen-2-yl}-1H-pyrazolo[3,4-b]pyridin-3-yl)-2,3,4,5-tetrahydro-1,4-benzoxazepin-5-one]: below 100 nM and below 100 nM.
As to `O=C1NCCOc2cc(-c3n[nH]c4ncc(-c5ccc6c(n5)CCC(N5CCCC5)CC6)cc34)ccc21` (stereo not drawn) [Example 63, 8-{5-[7-(Pyrrolidin-1-yl)-5H,6H,7H,8H,9H-cyclohepta[b]pyridin-2-yl]-1H-pyrazolo[3,4-b]pyridin-3-yl}-2,3,4,5-tetrahydro-1,4-benzoxazepin-5-one], the IC50 on recombinant human MER was 100 to 1000 nM; at recombinant human TYRO3 it was below 100 nM.
The matching figures for `Cc1cc2c(cc1-c1cnc3[nH]nc(-c4ccc5c(c4)OCCNC5=O)c3c1)CCC(N1CCC[C@H]1C)CC2` (stereo partly drawn) [Example 64, 8-(5-{3-Methyl-7-[(2R)-2-methylpyrrolidin-1-yl]-6,7,8,9-tetrahydro-5H-benzo[7]annulen-2-yl}-1H-pyrazolo[3,4-b]pyridin-3-yl)-2,3,4,5-tetrahydro-1,4-benzoxazepin-5-one]: below 100 nM and below 100 nM.
As to `C[C@@H]1CCCN1C1CCc2cc(-c3cnc4[nH]nc(-c5ccc6c(c5)OCCNC6=O)c4c3)cc(Cl)c2CC1` (stereo partly drawn) [Example 65, 8-(5-{4-Chloro-7-[(2R)-2-methylpyrrolidin-1-yl]-6,7,8,9-tetrahydro-5H-benzo[7]annulen-2-yl}-1H-pyrazolo[3,4-b]pyridin-3-yl)-2,3,4,5-tetrahydro-1,4-benzoxazepin-5-one], the IC50 at recombinant human MER and on recombinant human TYRO3 was below 100 nM throughout.
In the case of `C[C@@H]1CCCN1C1CCc2ccc(-c3cnc4[nH]nc(-c5ccc6c(c5)OCCNS6(=O)=O)c4c3)cc2CC1` (stereo partly drawn) [Example 66, 7-(5-{7-[(2R)-2-Methylpyrrolidin-1-yl]-6,7,8,9-tetrahydro-5H-benzo[7]annulen-2-yl}-1H-pyrazolo[3,4-b]pyridin-3-yl)-3,4-dihydro-2H-5,12,2-benzoxathiazepine-1,1-dione], the concentration for half-maximal inhibition (IC50) on recombinant human MER and on recombinant human TYRO3 was 100 to 1000 nM throughout.

A word on the IC50: it is the concentration that gives 50% inhibition.

These data come from patent US20240226115A1, “AXL INHIBITOR COMPOUNDS” (ARCUS BIOSCIENCES, INC., priority 2021, published 2024).
